# PMC12040169 (PLOS Biology, 2025)
# Assay: in vitro
# Conditions: human, hela cells, % viability
smiles,measurement,setting,value
O=C(c1ccc(F)cc1)C1CCN(C(=O)c2cccnc2NCc2ccc3c(c2)OCO3)CC1 [CBK160114],"viability at 28.5 h, 10 µM",,113%
CC(C)(C)OC(=O)NCCNC(=O)c1cccnc1NCc1ccc2c(c1)OCO2 [CBK160117],"viability at 28.5 h, 10 µM",,104%
CCOC(=O)c1[nH]c2ccccc2c1NC(=O)c1c(F)ccc(Cl)c1F [CBK160141],"viability at 28.5 h, 10 µM",,120%
CCOC(=O)c1[nH]c2ccccc2c1NC(=O)c1cc(F)cc(Cl)c1 [CBK160143],"viability at 28.5 h, 10 µM",,95.4%
CCOC(=O)c1[nH]c2ccccc2c1NC(=O)c1ccc(Cl)c(C)c1 [CBK160146],"viability at 28.5 h, 10 µM",,87%
CCOC(=O)c1[nH]c2ccccc2c1NC(=O)c1ccc(Br)cc1Cl [CBK160147],"viability at 28.5 h, 10 µM",,91.3%
CCOC(=O)c1[nH]c2ccccc2c1NC(=O)c1ccc(OC(F)(F)F)cc1 [CBK160157],"viability at 28.5 h, 10 µM",,87.8%
CCOC(=O)c1[nH]c2ccccc2c1NC(=O)CN1C(=O)CSC1=O [CBK160163],"viability at 28.5 h, 10 µM",,102%
CCOC(=O)c1[nH]c2ccccc2c1NC(=O)c1ccoc1 [CBK160169],"viability at 28.5 h, 10 µM",,107%
CCOC(=O)c1[nH]c2ccccc2c1NC(=O)[C@@H]1CCCN1C [CBK160171T],"viability at 28.5 h, 10 µM",,84.9%
O=C(O)c1ccc(-c2ccc(OC(F)(F)F)cc2)nc1 [CBK160173T],"viability at 28.5 h, 10 µM",,90.6%
COC(=O)c1ccc(-c2ccc3[nH]ccc3c2)nc1 [CBK160174T],"viability at 28.5 h, 10 µM",,89.1%
COC(=O)c1ccc(-c2ccc(OC)c(OC)c2)nc1 [CBK160175T],"viability at 28.5 h, 10 µM",,98.7%
CC(=O)Nc1ccc(-c2ccc(C(=O)N3CCN(C(=O)c4ccco4)CC3)cn2)cc1 [CBK160186],"viability at 28.5 h, 10 µM",,85.8%
Nc1ncc(-c2ccc(C(=O)N3CCOCC3)cc2)cc1C(=O)Nc1ccncc1 [CBK160202],"viability at 28.5 h, 10 µM",,93.6%
COc1cccc(NC(=O)c2cc(-c3ccc(C(=O)N4CCOCC4)cc3)cnc2N)c1 [CBK160203],"viability at 28.5 h, 10 µM",,89.4%
CC(=O)N1CCc2ccc(NC(=O)c3cc(-c4ccc(C(=O)N5CCOCC5)cc4)cnc3N)cc21 [CBK160205],"viability at 28.5 h, 10 µM",,89.9%
Cc1ccc(NC(=O)c2cncc(-c3ccc(C(=O)N4CCOCC4)cc3)c2)c(O)c1 [CBK160208],"viability at 28.5 h, 10 µM",,84.3%
CC(=O)N1CCc2ccc(NC(=O)c3cncc(-c4ccc(C(=O)N5CCOCC5)cc4)c3)cc21 [CBK160217],"viability at 28.5 h, 10 µM",,77.8%
COCCNC(=O)c1cnn2c(C)c(Cc3ccccc3C)c(C)nc12 [CBK160253],"viability at 28.5 h, 10 µM",,94.5%
COC(=O)c1cnn2c(C)c(Cc3cccc(Br)c3)c(C)nc12 [CBK160273],"viability at 28.5 h, 10 µM",,90.4%
O=C(Cc1c(O)c2ccccc2[nH]c1=O)NCc1ccc(Cl)cc1 [CBK160317],"viability at 28.5 h, 10 µM",,101%
O=C(NCc1ccccc1)c1ccc2[nH]c(=O)c(-c3ccccc3)c(O)c2c1 [CBK160318],"viability at 28.5 h, 10 µM",,84%
O=C(Cc1c(O)c2ccccc2[nH]c1=O)NCc1ccccc1Cl [CBK160320],"viability at 28.5 h, 10 µM",,88%
CCNC(=O)c1cncc(-c2[nH]nnc2-c2ccccc2)c1 [CBK160354],"viability at 28.5 h, 10 µM",,96.9%
O=C(c1cncc(-c2[nH]nnc2-c2ccccc2)c1)N1CCCC1 [CBK160360],"viability at 28.5 h, 10 µM",,91.7%
O=S(=O)(Nc1cccc(-c2nnn[nH]2)c1)c1ccc(Br)s1 [CBK160377],"viability at 28.5 h, 10 µM",,101%
CNC(=O)c1cccc(NS(=O)(=O)c2sc3ccc(Cl)cc3c2C)c1 [CBK160383],"viability at 28.5 h, 10 µM",,89.3%
COC(=O)C1C=C(NS(=O)(=O)c2ccc(-c3ccnc(SC)n3)s2)C=CC1 (stereo not drawn) [CBK160388],"viability at 28.5 h, 10 µM",,104%
COC(=O)c1cccc(N(C)S(=O)(=O)c2sc3ccc(Cl)cc3c2C)c1 [CBK160390],"viability at 28.5 h, 10 µM",,94.1%
CCOC(=O)c1ccc(NCc2c(O)ccc3oc4c(c23)CCCC4)cc1 [CBK160394],"viability at 28.5 h, 10 µM",,97.7%
COc1ccccc1NCc1c(O)c(Br)cc2oc3c(c12)CCCC3 [CBK160398],"viability at 28.5 h, 10 µM",,93.4%
CS(=O)(=O)Nc1cccc(C(=O)O)c1 [CBK160404],"viability at 28.5 h, 10 µM",,96.3%
Cc1ccc(CN(C2CCN(C)CC2)S(=O)(=O)c2ccccc2F)cc1 [CBK160444T],"viability at 28.5 h, 10 µM",,90.8%
Cc1ccc(CN(C2CCN(C)CC2)S(=O)(=O)c2ccc(F)cc2F)cc1 [CBK160448T],"viability at 28.5 h, 10 µM",,97.5%
Cc1onc(-c2ccccc2)c1C(=O)N1CCC1 [CBK160450],"viability at 28.5 h, 10 µM",,90.6%
CC(=O)CCC(=O)N1CCN(C(=O)c2ccc(-c3ccc(S(C)(=O)=O)cc3)cn2)CC1 [CBK160484],"viability at 28.5 h, 10 µM",,105%
CC(C)(C)c1ccc(CN2CCN(C(=O)c3ccc(-c4ccc(S(C)(=O)=O)cc4)cn3)CC2)cc1 [CBK160487],"viability at 28.5 h, 10 µM",,96.1%
COc1ccc(CCN(CCN2CCOCC2)C(=O)NCc2ccc3c(c2)OCO3)cc1OC [CBK160540],"viability at 28.5 h, 10 µM",,93.3%
CCN(CC)C(=O)CN(CCc1ccc(OC)c(OC)c1)C(=O)NCc1cc(C)on1 [CBK160581],"viability at 28.5 h, 10 µM",,96.1%
CS(=O)(=O)c1ccc(-c2ccc3c(c2)COC2(CCN(C(=O)CCCc4ccc(F)cc4)CC2)O3)cc1 [CBK160586],"viability at 28.5 h, 10 µM","bulk resorufin, single well",92.5%
CS(=O)(=O)c1ccc(-c2ccc3c(c2)COC2(CCN(C(=O)CC4CCCCC4)CC2)O3)cc1 [CBK160589],"viability at 28.5 h, 10 µM","bulk resorufin, single well",96.7%
CS(=O)(=O)c1ccc(-c2ccc3c(c2)COC2(CCN(C(=O)Cc4cccc(C(F)(F)F)c4)CC2)O3)cn1 [CBK160595],"viability at 28.5 h, 10 µM","bulk resorufin, single well",114%
CS(=O)(=O)c1ccc(-c2ccc3c(c2)COC2(CCN(C(=O)CC4CCCCC4)CC2)O3)cn1 [CBK160596],"viability at 28.5 h, 10 µM","bulk resorufin, single well",93.3%
COc1ccccc1CN(C1CCNCC1)S(=O)(=O)c1c(Cl)cccc1Cl [CBK160807T],"viability at 28.5 h, 10 µM",,89.2%
Brc1c(OCc2ccccc2)ccc2[nH]ccc12 [CBK160845],"viability at 28.5 h, 10 µM",,96.5%
CC(C)(N)C(=O)N1CCC2(CC1)OCc1cc(-c3ccc(S(C)(=O)=O)nc3)ccc1O2 [CBK160868],"viability at 28.5 h, 10 µM","bulk resorufin, single well",93.3%
NC(=O)CCNC(=O)C1(c2ccccc2)CCCC1 [CBK160929],"viability at 28.5 h, 10 µM",,104%
NCCNC(=O)c1cc(-c2ccc(Cl)cc2)[nH]n1 [CBK160975],"viability at 28.5 h, 10 µM",,110%
NCC(O)CNC(=O)c1cc(-c2ccc(Cl)cc2)[nH]n1 (stereo not drawn) [CBK160977],"viability at 28.5 h, 10 µM",,87%
CCc1ccc(CNC(=O)Cn2nnc(-c3ccc(CNCC4CC4)cc3)n2)cc1 [CBK161032C],"viability at 28.5 h, 10 µM",,109%
COc1cccc(CN2CCOC3(CCN(C(=O)OCc4ccccc4)CC3)C2)c1 [CBK161098T],"viability at 28.5 h, 10 µM",,95.4%
COc1cc(CN2CCOC3(CCN(C(=O)OCc4ccccc4)CC3)C2)cc(OC)c1OC [CBK161104T],"viability at 28.5 h, 10 µM",,79.4%
O=C(OCc1ccccc1)N1CCC2(CC1)CN(c1ccc([N+](=O)[O-])cn1)CCO2 [CBK161111T],"viability at 28.5 h, 10 µM",,92%
Cc1cc(C)c(C#N)c(N2CCOC3(CCN(C(=O)OCc4ccccc4)CC3)C2)n1 [CBK161114T],"viability at 28.5 h, 10 µM",,91%
COc1cc(OC)nc(CN2CCOC3(CCN(C(=O)c4ccc5ccccc5c4)CC3)C2)n1 [CBK161121A],"viability at 28.5 h, 10 µM",,91.6%
O=C(O)c1cccc(S(=O)(=O)Nc2nc3c(Cl)cccc3s2)c1 [CBK161135],"viability at 28.5 h, 10 µM",,96.5%
CCOc1ccc2nc(NS(=O)(=O)c3cccc(C(=O)O)c3)sc2c1 [CBK161137],"viability at 28.5 h, 10 µM",,102%
O=C(O)c1cccc(S(=O)(=O)Nc2nc3ccccc3s2)c1 [CBK161138],"viability at 28.5 h, 10 µM",,102%
O=C(O)C1CCCN(C(=O)NCc2ccc3c(c2)OCO3)C1 (stereo not drawn) [CBK161346],"viability at 28.5 h, 10 µM",,93.4%
